The text below walks through data of EP4772510A2, “BENZAZEPINONE COMPOUND AND USE THEREOF” (HANGZHOU BIO-SINCERITY PHARMA-TECHCO., LTD., priority 2023, dated 2025).

In assay [1] the test system is U937 cells. The experiment in a line: Inhibition of TNF-α-induced necroptosis of U937 cells (CCK-8 assay). The format is cell-based, human. The following applies: Homo sapiens, U-937, TNF-α 20 ng/mL + BV6 2 µM + Z-VAD-FMK 20 µM, 18 h. An excerpt: Example 56: Inhibition of TNF-α-Induced Necroptosis of U937 Cells by Compounds
• 1. Experimental reagents: RPMI-1640 culture medium, fetal bovine serum, penicillin-streptomycin, TNF-α (MCE, HY-P7058), BV6 (MCE, HY-16701), Z-VAD-FMK (MCE, HY-16658B), and CCK-8 (Dalian Meilun Biotech Co., Ltd., MA0218). • 2. Experimental instruments: medical low-temperature freezer (Thermo Fisher scientific, 902-ULTS), electrically heated thermostatic water bath (Shanghai Bluepard Instruments Co., Ltd., CD-420), low-speed centrifuge (ANHUI USTC Zonkia Scientific Instruments Co., Ltd, SC-3616), carbon dioxide incubator (Shanghai Bluepard Instruments Co., Ltd., BPN-150CH(UV)), inverted microscope (Olympus, CKX53), multi-functional microplate reader (Thermo Tecan, SPARK), class-II biosafety cabinet (AIRTECH, BSC-1304IIA2), and desktop cell counter (Thermo Fisher Scientific, Countess II). • 3. Cell culturing: U937 cells (human histiocytic lymphoma cells) were cultured in an RPMI-1640 culture solution containing 10% fetal bovine serum and 1% penicillin-streptomycin solution in a 5% CO2 incubator at 37 °C and a saturated humidity. The cell culture flask was vertically placed in the incubator. A T25 culture flask was used as an example, the culture solution in the flask was 6-8 mL, and culture medium changes and cell passaging were performed 3-4 times a week. • 4. […] The culture medium was taken out from the freezer and transferred to the water bath for pre-heating. An appropriate amount of culture medium was then taken for use. • (2) The cell suspension was transferred to a 15 mL sterile centrifuge tube and centrifuged at 850 rpm for 4 min to collect U937 cells. • (3) The supernatant was carefully discarded, and an appropriate amount of culture medium was added. The mixture was gently pipetted using a pipette to homogenize the cells and thus prepare a single-cell suspension, and the cells were counted. • (4) The cells were diluted to 4 × 10^5/mL and seeded into a 96-well plate at 90 µL/well, such that the cell density in the 96-well plate was 3.6 × 10 ^4 cells/well. The cells were incubated in a 5% CO 2 incubator at 37 °C and a saturated humidity for 6 h, followed by the addition of compounds. • 4.2 Dilution and addition of compounds: • (1) TNF-α was dissolved in PBS to obtain a 100 µg/mL stock solution and aliquoted; Z-VAD-FMK was dissolved in DMSO to obtain a 10 mM stock solution and aliquoted; BV6 was dissolved in DMSO to obtain a 10 mM stock solution and aliquoted; GSK2982772 was dissolved in DMSO to obtain a 10 mM stock solution and aliquoted. One aliquot of each stock solution was stored at -20 °C for immediate use, while the remaining aliquots were stored at - 80 °C and used within their shelf life. • (2) RPMI-1640 culture medium containing TNF-α, BV6, and Z-VAD-FMK was prepared (5 µL/per well), such that the final concentrations of TNF-α, BV6, and Z-VAD-FMK were 20 ng/mL, 2 µM, and 20 µM, respectively. • (3) Each target compound was three-fold diluted with a culture medium to 8 concentration gradients, with each concentration set in duplicate (5 µL/well). The final concentrations of each target compound were 1000.00/333.33/111.11/37.04/12.35/4.12/1.37/0.46 nM. • (4) The 96-well plate containing 90 µL of cell suspension was taken out from an incubator, and a positive control group, test compound groups, and a DMSO (5‰) control group were set. 5 µL of RPMI-1640 culture solution containing TNF-α, BV6, and Z-VAD-FMK and 5 µL of culture solution containing the test compound were added to the positive control group and the test compound groups. After compound addition, the mixtures were cultured for 18 h, followed by the CCK-8 assay. • (5) The 96-well plate was taken out, and the CCK-8 reagent was carefully added at 10 µL/well. The mixtures were incubated at 37 °C for 2-4 h, and the absorbance value was measured at a wavelength of 450 nm. • 5. Evaluation of inhibitory activity of compounds on TNF-α-induced necroptosis of U937 [formula] […]
Background: Formazan colour is commonly taken as a measure of viable cells.

Assay [2] relates to HT-29 cells. Briefly: Inhibition of TNF-α-induced necroptosis of HT-29 cells (SRB method). The format is cell-based, human. The following applies: Homo sapiens, HT-29, TNF-α 20 ng/mL + BV6 2 µM + Z-VAD-FMK 20 µM, 18 h. From the text: Example 57: Inhibition of TNF-α-Induced Necroptosis of HT-29 Cells by Compounds
• 1. Experimental reagents: McCOY's 5A culture medium, fetal bovine serum, penicillin-streptomycin, trypsin, PBS, TNF-α (MCE, HY-P7058), BV6 (MCE, HY-16701), Z-VAD-FMK (MCE, HY-16658B), SRB kit (Shanghai BestBio Biotechnology Co., Ltd., BB-4208-500T). • 2. Experimental instruments: medical low-temperature freezer (Thermo Fisher scientific, 902-ULTS), electrically heated thermostatic water bath (Shanghai Bluepard Instruments Co., Ltd., CD-420), low-speed centrifuge (ANHUI USTC Zonkia Scientific Instruments Co., Ltd, SC-3616), carbon dioxide incubator (Shanghai Bluepard Instruments Co., Ltd., BPN-150CH(UV)), inverted microscope (Olympus, CKX53), multi-functional microplate reader (Thermo Tecan, SPARK), class-II biosafety cabinet (AIRTECH, BSC-1304IIA2), and desktop cell counter (Thermo Fisher Scientific, Countess II). • 3. Cell culturing: HT-29 cells (human colon cancer cells) were cultured in a McCOY's 5A culture solution containing 10% fetal bovine serum and 1% penicillin-streptomycin solution in a 5% CO 2 at 37 °C and a saturated humidity, and culture medium changes and cell passaging were performed 3-4 times a week. • 4. […] The culture medium, trypsin, etc., were taken out from the freezer and transferred to the water bath for pre-heating. An appropriate amount of these substances was then taken for use. • (2) The old culture medium in the flask was aspirated using a sterile pipette and discarded, and the cells were washed 3 times with PBS. 1 mL of trypsin (25 cm^2 cell culture flask) was added into the flask, and the flask was gently shaken to allow the trypsin to cover all the cell surfaces. Digestion was performed in an incubator at 37 °C. After 2 min of digestion, the flask was placed under a microscope for observation. […] The mixture was gently pipetted using a pipette to homogenize the cells and thus prepare a single-cell suspension, and the cells were counted. • (5) The cells were diluted to 3 × 10^5/mL and seeded into a 96-well plate at 100 µL/well, such that there were 3 × 10^4 cells per well in the 96-well plate. The cells were incubated in a 5% CO2 incubator at 37 °C and a saturated humidity for 24 h, followed by the addition of compounds. • 4.2 Dilution and addition of compounds: • (1) TNF-α was dissolved in PBS to obtain a 100 µg/mL stock solution and aliquoted; Z-VAD-FMK was dissolved in DMSO to obtain a 10 mM stock solution and aliquoted; BV6 was dissolved in DMSO to obtain a 10 mM stock solution and aliquoted; GSK2982772 was dissolved in DMSO to obtain a 10 mM stock solution and aliquoted. One aliquot of each stock solution was stored at -20 °C for immediate use, while the remaining aliquots were stored at - 80 °C and used within their shelf life. • (2) McCOY's 5A culture solution containing TNF-α, BV6, and Z-VAD-FMK was prepared. For the positive control group and the test compound groups, the McCOY's 5A culture solution was added at 90 µL/well, and 10 µL of the culture medium containing the test compound was also added, thus making the final concentrations of TNF-α, BV6, and Z-VAD-FMK be 20 ng/mL, 2 µM, and 20 µM, respectively. For the DMSO (5‰) control group, 90 µL of the McCOY's 5A complete culture solution was added, and then 10 µL of DMSO was added, thus making the final concentration 5‰. • (3) Each target compound was three-fold diluted with a culture medium to 8 concentration gradients, with each concentration set in duplicate (10 µL/well). The final concentrations of each target compound were 1000.00/333.33/111.11/37.04/12.35/4.12/1.37/0.46 nM. • (4) The 96-well plate cultured for 24 h was taken out from the incubator, and the culture medium in the 96-well plate was carefully aspirated and discarded. A positive control group, test compound groups, and a DMSO (5‰) control group were set, and 10 µL of the corresponding compound was added to each group. […]

By EC50 is commonly meant the concentration giving half of the maximal effect. `Cc1ccc(Cn2cnc(C(=O)NC3CCc4cc(C#Cc5cnn(C)c5)cc5c4N(CC5)C3=O)n2)cc1` (stereo not shown) [III-14, N-(9-((1-methyl-1H-pyrazol-4-yl)ethynyl)-4-oxo-1,2,3,4,6,7-hexahydroazepino[3,2,1-hi]indol-3-yl)-1-(4-methylbenzyl)-1H-1,2,4-triazole-3-carboxamide]: the EC50 in assay [1] is below 5 nM; in assay [2], 5 to 10 nM.
For `O=C(NC1CCc2cc(C#Cc3cnn(C4CCC4)c3)cc3c2N(CC3)C1=O)c1ncn(Cc2c(F)cccc2F)n1` (stereo not shown) [III-30, N-(9-((1-cyclobutyl-1H-pyrazol-4-yl)ethynyl)-4-oxo-1,2,3,4,6,7-hexahydroazepino[3,2,1-hi]indol-3-yl)-1-(2,6-difluorobenzyl)-1H-1,2,4-triazole-3-carboxamide], the EC50 in assay [1] and in assay [2] was below 5 nM each time.
Take `Cn1cc(C#Cc2cc3c4c(c2)CCN4C(=O)C(NC(=O)c2ncn(Cc4ccccc4F)n2)CC3)cn1` (stereo not shown) [III-7, 1-(2-fluorobenzyl)-N-(9-((1-methyl-1H-pyrazol-4-yl)ethynyl)-4-oxo-1,2,3,4,6,7-hexahydroazepino[3,2,1-hi]indol-3-yl)-1H-1,2,4-triazole-3-carboxamide]: the EC50 in assay [1] was below 5 nM; in assay [2] it was 10 to 100 nM.
For `Cn1cc(C#Cc2cc3c4c(c2)CCN4C(=O)C(NC(=O)c2ncn(Cc4ccccc4)n2)CC3)cn1` (stereo not shown) [III-32, 1-benzyl-N-(9-((1-methyl-1H-pyrazol-4-yl)ethynyl)-4-oxo-1,2,3,4,6,7-hexahydroazepino[3,2,1-hi]indol-3-yl)-1H-1,2,4-triazole-3-carboxamide] the same measures were below 5 nM and below 5 nM.
The corresponding values for `O=C(NC1CCc2cc(C#CC3CCOCC3)cc3c2N(CC3)C1=O)c1nnc(Cc2ccccc2)[nH]1` (stereo not shown) [Compound I-6, 5-benzyl-N-(4-oxo-9-((tetrahydro-2H-pyran-4-yl)ethynyl)-1,2,3,4,6,7-hexahydroazepino[3,2,1-hi]indol-3-yl)-4H-1,2,4-triazole-3-carboxamide] are 10 to 100 nM and 10 to 100 nM.
The corresponding values for `O=C(NC1CCc2cc(C#CC3CC3)cc3c2N(CC3)C1=O)c1ncn(Cc2c(F)cccc2F)n1` (stereo not shown) [III-6, N-(9-(cyclopropylethynyl)-4-oxo-1,2,3,4,6,7-hexahydroazepino[3,2,1-hi]indol-3-yl)-1-(2,6-difluorobenzyl)-1H-1,2,4-triazole-3-carboxamide] are 10 to 100 nM and 5 to 10 nM.
With `O=C(NC1CCc2cc(C#Cc3cnn(C(F)F)c3)cc3c2N(CC3)C1=O)c1ncn(Cc2cc(F)cc(F)c2)n1` (stereo not shown) [III-18, 1-(3,5-difluorobenzyl)-N-(9-((1-(difluoromethyl)-1H-pyrazol-4-yl)ethynyl)-4-oxo-1,2,3,4,6,7-hexahydroazepino[3,2,1-hi]indol-3-yl)-1H-1,2,4-triazole-3-carboxamide], the values for the EC50 in assay [1] and in assay [2] were 10 to 100 nM and 5 to 10 nM, respectively.
For `O=C(NC1CCc2ccc(C#CC3CC3)c3c2N(CC3)C1=O)c1nnc(Cc2ccccc2)[nH]1` (stereo not shown) [II-3, 5-benzyl-N-(8-(cyclopropylethynyl)-4-oxo-1,2,3,4,6,7-hexahydroazepino[3,2,1-hi]indol-3-yl)-4H-1,2,4-triazole-3-carboxamide] the same measures were above 200 nM and 100 to 200 nM.
Turning to `Cn1cc(C#Cc2cc3c4c(c2)CCN4C(=O)C(NC(=O)c2ncn(Cc4ccccn4)n2)CC3)cn1` (stereo not shown) [III-31, N-(9-((1-methyl-1H-pyrazol-4-yl)ethynyl)-4-oxo-1,2,3,4,6,7-hexahydroazepino[3,2,1-hi]indol-3-yl)-1-(pyridin-2-ylmethyl)-1H-1,2,4-triazole-3-carboxamide], the EC50 in assay [1] was 5 to 10 nM; in assay [2] it was below 5 nM.
As for `O=C(NC1CCc2cc(C#Cc3ccncc3)cc3c2N(CC3)C1=O)c1nnc(Cc2c(F)cccc2F)[nH]1` (stereo not shown) [Compound I-12, 5-(2,6-difluorobenzyl)-N-(4-oxo-9-(pyridin-4-ylethynyl)-1,2,3,4,6,7-hexahydroazepino[3,2,1-hi]indol-3-yl)-4H-1,2,4-triazole-3-carboxamide], the EC50 in assay [1] and in assay [2] was 10 to 100 nM each time.
In the case of `O=C(NC1CCc2ccc(C#Cc3cccnc3)c3c2N(CC3)C1=O)c1nnc(Cc2ccccc2)[nH]1` (stereo not shown) [II-2, 5-benzyl-N-(4-oxo-8-(pyridin-3-ylethynyl)-1,2,3,4,6,7-hexahydroazepino[3,2,1-hi]indol-3-yl)-4H-1,2,4-triazole-3-carboxamide], the EC50 in assay [1] was in the range of 100 to 200 nM; in assay [2] it was 10 to 100 nM.
